Source: patent US10393730B2, “Energy malnutrition evaluation for liver disease test subject” (OTSUKA PHARMACEUTICAL CO., LTD., priority 2014, dated 2019)

Experiments:
[1] = parameters: species or system male SD rats (liver cirrhosis model rats and untreated rats); settings: rat, in vivo, iv
Description: U-^13C-glucose (MW: 186, Cambridge Isotope Laboratories, Inc.) was dissolved in a physiological saline solution at a concentration of 50 μmol/ml, thereby preparing a ^13C-glucose-containing composition.

[2] = non-fasting period and fasting period, control group versus liver cirrhosis model group, 2 mL/kg i.v., 0-120 minutes
Description: CCl4 (olive oil: CCl4=1:1) was administered subcutaneously to the dorsal regions of male SD rats (10 weeks of age: n=3) in an amount of 2 mL/kg twice a week for 12 weeks, thereby creating liver cirrhosis model rats. With a biogas analysis device (product name: Oxymax, Columbus Instruments), respiratory quotient and energy consumption of untreated rats (control group) and liver cirrhosis model rats (liver cirrhosis model group) were measured and calculated according to the instructions of the device.
Further, both the untreated rats and the liver cirrhosis model rats were fed from 19:00 on Day 1 of the test to 13:00 on Day 3, and were fasted from 13:00 on Day 3 to 13:00 on Day 4, as shown in FIG. 1 shown later. During the non-fasting period, the rats were allowed free access to feed (product name: CRF-1, Oriental Yeast Co., Ltd.). […]
The above-prepared ^13C-palmitic acid-containing composition was individually intravenously administered to the liver cirrhosis model rats and untreated rats prepared in the above Reference Example in an amount of 2 mL/kg (n=3). […] Expired air was collected at time points between before administration (0 minutes) to 120 minutes after the administration of ^13C-palmitic acid-containing composition. Δ^13C(‰) was measured and determined using an expired air analysis mass spectrometer (ABCA: product of Sercon).

OC[C@H]1OC(O)[C@H](O)[C@@H](O)[C@@H]1O (some centres unmarked) [^13C-glucose-containing composition, U-^13C-glucose]
expired air reaction (Δ^13C(‰)), day versus night [1]: a significant difference in the expired air reaction (Δ^13C(‰)) was not observed between day and night

CCCCCCCCCCCCCCC[13C](=O)[O-].[Na+] [1-^13C-sodium palmitate]
expired air reaction (Δ^13C(‰)) [2]: showed similar transitions in the control group and the liver cirrhosis model group
